Assay [1] concerns tetrabenazine induced ptosis. As to the kind of experiment: tetrabenazine induced ptosis assay in mice (antidepressant activity). It counts as in vivo. Conditions: Mus musculus, ip, read-out: Anti-Depressant Activity ED50.
Assay [2] has as its system N-methyl-D-aspartic acid (NMDA)-induced seizures. As to the kind of experiment: N-Methyl-D,L-Aspartic Acid Induced Seizure Assay (NMDA protection). Type of assay: in vivo, male Swiss Webster mice. Conditions: Mus musculus, 0.5 h; ip; N-methyl-D,L-aspartic acid 350 mg/kg, sc; total absence of clonic seizures during 30 minutes. The protocol: In this assay, male Swiss Webster mice (Charles River), 18-25 grams are used. Animals are ordered at 33 to 36 days of age and can be used for 8 days after arrival. They are housed for at least 24 hours in a climate controlled animal colony with food and water available ad libitum. On the day of testing, animals are brought to the laboratory and randomly assigned to groups. N-Methyl-D,L-aspartic acid (350 mg) is dissolved in 10 ml of saline and mixed thoroughly with a homogenizer for 1-2 minutes. Test compounds are prepared in distilled water and, if insoluable, a suitable surfactant is added. For a primary screen the test compound is administered at 60 mg/kg, ip (10 ml/kg), to groups of ten mice, 30 minutes prior to challenge with N-methyl-D,L-aspartic acid (350 mg/kg, sc). After N-Methyl-D,L-aspartic acid administration animals are placed individually in clear plastic cyclinders (12"×5.5"×1/4") and then observed for clonic seizures. N-methyl-D,L-aspartic acid will produce clonic seizures, and sometimes tonic seizures and death, in vehicle control animals.
A clonic convulsion is defined as a single episode of clonic spasms of a least a 3 second duration. A tonic seizure is defined as a brief period of hindlimb flexion followed by a prolonged period of hindlimb extension. The mice treated with N-methyl-D,L-aspartic acid are considered "protected" when there is a total absence of clonic seizures during the 30 minute observation period.
Test compounds are run at the time of peak effect. Three or more doses are used (10 animals per group).
Data is calculated by the method of J. T. Litchfield, Jr. and F. Wilcoxon. A test should be repeated if 40% of vehicle control animals are protected. The normalized percent formula is used when 10-30% of the vehicle control animals are protected.
The normalized percent protection is calculated using the following formula: […]

The subject of assay [3] is Geller Conflict Paradigm in Rats. As to the kind of experiment: Geller Conflict Paradigm in Rats (anxiolytic activity). It counts as in vivo. An excerpt: The intraperitoneal (i.p.) dosages at which the following compounds show anxiolytic activity are: […]
The subject of assay [4] is supramaximal electroshock (SES). As to the kind of experiment: supramaximal electroshock (SES) assay (anticonvulsant activity). Type of assay: in vivo, male mouse. Conditions: Mus musculus, ip, read-out: Anticonvulsant Activity ED50. The protocol:
The Formula III compounds of this invention are useful as anticonvulsants due to their anticonvulsant activity in mammals. Anticonvulsant activity is measured in the male mouse using the supramaximal electroshock (SES) assay described in Arch. Int. Pharmacodyn. 92: 97-107, 1952. Intraperitoneal doses of representative compounds of the invention and their ability to protect from the effect of SES is shown below in Table 2. ED50 values, i.e., the doses at which, within 95% confidence intervals, 50% of the animals are protected are calculated by computerized probit analysis.

Where [5] appears, read: 50% inhibition of ptosis of tetrabenazine-induced depression in mice.

Structures can show the parent of a compound that is named as a salt. Where two headings read alike, the source gives them in different places.

For the compound `CCC1=Nc2ccccc2CC(c2ccncc2)N1C` (stereo not shown) [4,5-Dihydro-2-ethyl-3-methyl-4-(4-pyridinyl)-3H-1,3-benzodiazepine hemihydrate], the ED50 in assay [1] was 6.8 mg/kg. In assay [2], `CNC(Cc1ccc(C(F)(F)F)cc1N)c1sccc1C` (stereo not drawn) [2-Amino-N-methyl-α-(3-methyl-2-thienyl)-4-trifluoromethylbenzeneethanamine] had a median effective dose (ED50) of 26.4 mg/kg. With `CCC1=Nc2ccccc2CC(c2ccsc2)N1C.Cl` (stereo not shown) [4,5-Dihydro-2-ethyl-3-methyl-4-(3-thienyl)-3H-1,3-benzodiazepine hydrochloride], in assay [1] (setting [5]), the ED50 was 8.7 mg/kg. As to `CCC1=Nc2ccccc2CC(c2cccs2)N1C.Cl` (stereo not shown) [4,5-Dihydro-2-ethyl-3-methyl-4-(2-thienyl)-3H-1,3-benzodiazepine hydrochloride], the ED50 in assay [1] (setting [5]) is 4.7 mg/kg. `NC(CCCP(=O)(O)O)C(=O)O` (stereo not shown) [2-Amino-5-phosphonovaleric acid, reference compound] registered an ED50 in assay [2] of 48.5 mg/kg. On to `CN1C(=O)CN=C(c2ccccc2)c2cc(Cl)ccc21` [Diazepam, reference compound], for which the “Anti-Conflict Response, % Change Compared to Control” value in assay [3] (dose 10 m.g./kg i.p.) is given as “+180%”; in assay [3] (dose 15 m.g./kg i.p.), “+453%”; in assay [3] (dose 20 m.g./kg i.p.), “+630%”. As for `O=C1NC(=O)C(c2ccccc2)(c2ccccc2)N1` [Diphenylhydantoin, reference compound], the 50% effective dose (ED50) in assay [4] (dose protecting 50% of the animals, 95% confidence, probit analysis) came out at 3.9 mg/kg. `Cc1ccsc1C(N)Cc1ccccc1N.Cl.Cl` (stereo not drawn) [2-Amino-α-(3-methyl-2-thienyl)benzeneethanamine dihydrochloride] yielded a 50% effective dose (ED50) in assay [2] of 19 mg/kg.

In the case of `CN(C)CCC=C1c2ccccc2COc2ccccc21` [Doxepin, reference compound], the ED50 in assay [1] (setting [5]) amounted to 3.8 mg/kg. Turning to `CNC(Cc1ccccc1N)c1cccs1` (stereo not drawn) [2-Amino-N-methyl-α-(2-thienyl)benzeneethanamine dihydrochloride hemihydrate], in assay [4], the ED50 came out at 30.4 mg/kg.

Take `CCC1=Nc2ccccc2CC(c2sccc2C)N1C.Cl.O` (stereo not shown) [4,5-Dihydro-2-ethyl-3-methyl-4-(3-methyl-2-thienyl)-3H-1,3-benzodiazepine hydrochloride monohydrate]: in assay [1] (setting [5]), the ED50 was 5.3 mg/kg. In the case of `CNC(Cc1ccccc1N)c1sccc1C` (stereo not drawn) [2-Amino-N-methyl-α-(3-methyl-2-thienyl)benzeneethanamine], the median effective dose (ED50) in assay [2] is 26.7 mg/kg; in assay [4], 4.6 mg/kg. In addition, the “Anti-Conflict Response, % Change Compared to Control” value is reported as “+807%” in assay [3] (dose 20 m.g./kg i.p.), “+547%” in assay [3] (dose 40 m.g./kg i.p.) and “+242%” in assay [3] (dose 60 m.g./kg i.p.). In the case of `CCNC(Cc1ccccc1N)c1sccc1C.Cl.Cl` (stereo not drawn) [2-Amino-N-ethyl-α-(3-methyl-2-thienyl)benzeneethanamine dihydrochloride], the “Anti-Conflict Response, % Change Compared to Control” value is “+100%” in assay [3] (dose 1 m.g./kg i.p.) and “+70%” in assay [3] (dose 5 m.g./kg i.p.). Turning to `CNC(Cc1cc(Br)ccc1N)c1sccc1C` (stereo not drawn) [2-Amino-5-bromo-N-methyl-α-(3-methyl-2-thienyl)benzeneethaneamine], the 50% effective dose (ED50) in assay [4] was 9.2 mg/kg. Turning to `CC1=Nc2ccccc2CC(c2ccc(C)s2)N1C` (stereo not shown) [4,5-Dihydro-2,3-dimethyl-4-(5-methyl-2-thienyl)-3H-1,3-benzodiazepine], in assay [1], the median effective dose (ED50) stood at 12.2 mg/kg.

Values taken from US5292760A, “4-heteroaryl-1,3-benzodiazepines and 2-substituted-α-(heteroaryl)benzeneethanamines” (Hoechst-Roussel Pharmaceuticals Inc., priority 1992, dated 1994).
